In PubChem BioAssay AID2060346 (Molecular Pharmacology Branch, DTP, NCI, 2025):

Test system: CN0375-F725-PDC multi-cell spheroids, viability
Assay: Anticancer human tumor CN0375-F725-PDC patient-derived colon carcinoma cell line growth inhibition [TAK]
Conditions: for IC50: curve of first compound; for viability, T/C: stronger effect = lower value
Description: Combinatorial screen of targeted agents with TAK-243 and ipatasertib in multi-cell type tumor spheroids
A high-throughput screen of multi-cell type tumor spheroids was designed to identify active combinations of targeted small molecules and TAK-243 or ipatasertib. Complex spheroids include a stromal component modeled by human endothelial cells (HUVEC) and fibroblasts modeled by human mesenchymal stem cells (MSCs). The concentration ranges selected for each drug and investigational agent were based upon clinically achievable concentrations if the clinical Cmax of the agent was known.
Compounds. The drugs and investigational agents: TAK-243 (785004), ipatasertib (767898), everolimus (733504), selumetinib (741078), bortezomib (756655), trametinib (758246), ixazomib (758254), vemurafenib (761431), dabrafenib (764134), sapanisertib (764658), alpelisib (765974), and copanlisib (816437), were obtained from the National Cancer Institute (NCI) Developmental Therapeutics Program Chemical Repository. The FDA-approved anticancer drug set is available from the NCI Developmental Therapeutics Program. […] The stock solutions were prepared in dimethyl sulfoxide (DMSO, Sigma-Aldrich, St. Louis, MO, cat. D2650) at 800-fold the tested concentration and stored at -70 degrees C prior to their use. All drugs and investigational agents were tested over a range starting from a high concentration at or near the clinical Cmax and decreasing in half-log increments. If the clinical Cmax for an agent had not been determined, the highest concentration tested was 10 microM.
NCI60 Cell Culture. NCI60 cell lines were obtained from the NCI Developmental Therapeutics Program Tumor Repository. For each lot of cells, the Repository performed Applied Biosystems AmpFLSTR Identifiler testing with PCR amplification to confirm consistency with the published Identifier STR profile for each cell line. Cells were kept in continuous culture for no more than 20 passages. The optimal seeding densities for each of the cell lines at each time point assessed were determined prior to performing the concentration response studies. Briefly, the NCI60 human tumor lines were grown as monolayers in RPMI 1640 medium supplemented with 10% FBS and 2 mmol/L L-glutamine.
An additional 2 lines were from the NCI60 cell line panel including melanomas, MALME-3M and SK-MEL-2. Pooled donor human umbilical vein endothelial cells (HUVEC, Lonza, cat. CC-2519) and human mesenchymal stem cells (hMSC, Lonza, cat. PT-2501) were purchased from Lonza (Walkersville, MD).
PDMR cell lines were grown in complete medium (DC medium): Dulbecco's modified Eagle's medium (DMEM)/F12 supplemented with 5% fetal bovine serum (FBS), 2 mM L-glutamine, 100 U/mL penicillin and 100 µg/ml streptomycin, 0.4 µg/ml hydrocortisone, 10 ng/ml epidermal growth factor (EGF) recombinant human protein, 24 µg/mL adenine, and 0.1 mg/mL primocin. During culture from frozen stock vials, PDMR cells were cultured in the same medium containing 10 µM Y-27632 (see Table 3). The PDCs were cultured in complete DMEM/F12 media without 10 microM Y-27632 dihydrochloride for at least two passages prior to the screen. The pooled donor HUVEC and hMSC were cultured in endothelial cell growth medium 2 (PromoCell, Heidelberg, Germany, cat. C-22011) and mesenchymal stem cell growth medium 2 (PromoCell, cat. C-28009), respectively. For all experiments, HUVEC and hMSC were used at passages </=5.
For the pre-screen, cell seeding densities were determined from a titration spanning the range from 5,000 to 313 cells per well. The mct-spheroids including 60% malignant cells, 25% HUVEC and 15% MSC dispensed as a mixture into U-bottom Ultra-Low Attachment 384-well plates (Corning, NY)
High-throughput Drug Combination Screening.
Prior to their inoculation into 384-well plates, malignant cells, HUVEC, and hMSC were removed from T flasks using TrypLE express (Thermo Fisher Scientific, cat. 12605036) and harvested by centrifugation for 5 min at 233 x g. […]

[1] = second compound 0.3 µM, first compound 0.0316 µM
[2] = second compound 0.3 µM, first compound 0.1 µM
[3] = second compound 0.3 µM, first compound 0.316 µM
[4] = second compound 0.3 µM, first compound 1 µM
[5] = second compound 0.3 µM, first compound 3.16 µM
[6] = second compound 0.3 µM, first compound 10 µM
[7] = second compound 0.949 µM, first compound 0.0316 µM
[8] = second compound 0.949 µM, first compound 0.1 µM
[9] = second compound 0.949 µM, first compound 0.316 µM
[10] = second compound 0.949 µM, first compound 1 µM
[11] = second compound 0.949 µM, first compound 3.16 µM
[12] = second compound 0.949 µM, first compound 10 µM
[13] = second compound 3 µM, first compound 0.0316 µM
[14] = second compound 3 µM, first compound 0.1 µM
[15] = second compound 3 µM, first compound 0.316 µM
[16] = second compound 3 µM, first compound 1 µM
[17] = second compound 3 µM, first compound 3.16 µM
[18] = second compound 3 µM, first compound 10 µM
[19] = second compound 9.49 µM, first compound 0.0316 µM
[20] = second compound 9.49 µM, first compound 0.1 µM
[21] = second compound 9.49 µM, first compound 0.316 µM
[22] = second compound 9.49 µM, first compound 1 µM
[23] = second compound 9.49 µM, first compound 3.16 µM
[24] = second compound 9.49 µM, first compound 10 µM
[25] = second compound 30 µM, first compound 0.0316 µM
[26] = second compound 30 µM, first compound 0.1 µM
[27] = second compound 30 µM, first compound 0.316 µM
[28] = second compound 30 µM, first compound 1 µM
[29] = second compound 30 µM, first compound 3.16 µM
[30] = second compound 30 µM, first compound 10 µM
[31] = second compound 0.3 µM, first compound 0.000316 µM
[32] = second compound 0.3 µM, first compound 0.001 µM
[33] = second compound 0.3 µM, first compound 0.00316 µM
[34] = second compound 0.3 µM, first compound 0.01 µM
[35] = second compound 0.949 µM, first compound 0.000316 µM
[36] = second compound 0.949 µM, first compound 0.001 µM
[37] = second compound 0.949 µM, first compound 0.00316 µM
[38] = second compound 0.949 µM, first compound 0.01 µM
[39] = second compound 3 µM, first compound 0.000316 µM
[40] = second compound 3 µM, first compound 0.001 µM
[41] = second compound 3 µM, first compound 0.00316 µM
[42] = second compound 3 µM, first compound 0.01 µM
[43] = second compound 9.49 µM, first compound 0.000316 µM
[44] = second compound 9.49 µM, first compound 0.001 µM
[45] = second compound 9.49 µM, first compound 0.00316 µM
[46] = second compound 9.49 µM, first compound 0.01 µM
[47] = second compound 30 µM, first compound 0.000316 µM
[48] = second compound 30 µM, first compound 0.001 µM
[49] = second compound 30 µM, first compound 0.00316 µM
[50] = second compound 30 µM, first compound 0.01 µM
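Further: spheroids exposed to drugs for seven days.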
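Wherever viability, T/C is given: 100% = DMSO vehicle control wells.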

## CC(C)(C)c1nc(-c2cccc(NS(=O)(=O)c3c(F)cccc3F)c2F)c(-c2ccnc(N)n2)s1 + CC(C)NCC(C(=O)N1CCN(c2ncnc3c2C(C)CC3O)CC1)c1ccc(Cl)cc1
Second compound 0.3 µM
  IC50: > 10000 nM
Second compound 0.949 µM
  IC50: > 10000 nM
Second compound 3 µM
  IC50: > 10000 nM
Second compound 9.49 µM
  IC50: > 10000 nM
Second compound 30 µM
  IC50: > 10000 nM
[1]
  viability, T/C: 121%
[2]
  viability, T/C: 128%
[3]
  viability, T/C: 124%
[4]
  viability, T/C: 118%
[5]
  viability, T/C: 105%
[6]
  viability, T/C: 108%
[7]
  viability, T/C: 123%
[8]
  viability, T/C: 125%
[9]
  viability, T/C: 120%
[10]
  viability, T/C: 111%
[11]
  viability, T/C: 95%
[12]
  viability, T/C: 107%
[13]
  viability, T/C: 108%
[14]
  viability, T/C: 119%
[15]
  viability, T/C: 120%
[16]
  viability, T/C: 103%
[17]
  viability, T/C: 94.9%
[18]
  viability, T/C: 92.1%
[19]
  viability, T/C: 98%
[20]
  viability, T/C: 108%
[21]
  viability, T/C: 105%
[22]
  viability, T/C: 97.9%
[23]
  viability, T/C: 85.4%
[24]
  viability, T/C: 86.2%
[25]
  viability, T/C: 94.3%
[26]
  viability, T/C: 102%
[27]
  viability, T/C: 89.6%
[28]
  viability, T/C: 79.3%
[29]
  viability, T/C: 77.7%
[30]
  viability, T/C: 75%

## CC(C)CC(NC(=O)CNC(=O)c1cc(Cl)ccc1Cl)B1OC(=O)CC(CC(=O)O)(C(=O)O)O1 (stereo not given) + CC(C)NCC(C(=O)N1CCN(c2ncnc3c2C(C)CC3O)CC1)c1ccc(Cl)cc1
Second compound 0.3 µM
  IC50: 49.3 nM
Second compound 0.949 µM
  IC50: 43.2 nM
Second compound 3 µM
  IC50: 45.8 nM
Second compound 9.49 µM
  IC50: 30.6 nM
Second compound 30 µM
  IC50: 17.5 nM
[31]
  viability, T/C: 102%
[32]
  viability, T/C: 104%
[33]
  viability, T/C: 108%
[34]
  viability, T/C: 99.4%
[1]
  viability, T/C: 68.4%
[2]
  viability, T/C: 20.7%
[35]
  viability, T/C: 102%
[36]
  viability, T/C: 99.8%
[37]
  viability, T/C: 102%
[38]
  viability, T/C: 98.8%
[7]
  viability, T/C: 60.3%
[8]
  viability, T/C: 22.4%
[39]
  viability, T/C: 91.8%
[40]
  viability, T/C: 101%
[41]
  viability, T/C: 96.7%
[42]
  viability, T/C: 101%
[13]
  viability, T/C: 65.9%
[14]
  viability, T/C: 16.4%
[43]
  viability, T/C: 86%
[44]
  viability, T/C: 92.5%
[45]
  viability, T/C: 93.4%
[46]
  viability, T/C: 93.6%
[19]
  viability, T/C: 48.8%
[20]
  viability, T/C: 15.6%
[47]
  viability, T/C: 77.9%
[48]
  viability, T/C: 91.7%
[49]
  viability, T/C: 88.2%
[50]
  viability, T/C: 76.2%
[25]
  viability, T/C: 22.2%
[26]
  viability, T/C: 5.95%

## CC(C)n1nc(-c2ccc3oc(N)nc3c2)c2c(N)ncnc21 + CC(C)NCC(C(=O)N1CCN(c2ncnc3c2C(C)CC3O)CC1)c1ccc(Cl)cc1
Second compound 0.3 µM
  IC50: > 100 nM
Second compound 0.949 µM
  IC50: > 100 nM
Second compound 3 µM
  IC50: > 100 nM
Second compound 9.49 µM
  IC50: 76.5 nM
Second compound 30 µM
  IC50: 24.3 nM
[31]
  viability, T/C: 108%
[32]
  viability, T/C: 102%
[33]
  viability, T/C: 95.8%
[34]
  viability, T/C: 79.2%
[1]
  viability, T/C: 71.1%
[2]
  viability, T/C: 59.5%
[35]
  viability, T/C: 96.9%
[36]
  viability, T/C: 99.5%
[37]
  viability, T/C: 89.7%
[38]
  viability, T/C: 80.3%
[7]
  viability, T/C: 68.3%
[8]
  viability, T/C: 57.5%
[39]
  viability, T/C: 90.6%
[40]
  viability, T/C: 95.3%
[41]
  viability, T/C: 87.4%
[42]
  viability, T/C: 80.3%
[13]
  viability, T/C: 65.9%
[14]
  viability, T/C: 54.4%
[43]
  viability, T/C: 84.9%
[44]
  viability, T/C: 91.4%
[45]
  viability, T/C: 82.6%
[46]
  viability, T/C: 77.3%
[19]
  viability, T/C: 60.3%
[20]
  viability, T/C: 46.9%
[47]
  viability, T/C: 67.7%
[48]
  viability, T/C: 69.2%
[49]
  viability, T/C: 75.6%
[50]
  viability, T/C: 68.5%
[25]
  viability, T/C: 44.4%
[26]
  viability, T/C: 36.6%

## CCCS(=O)(=O)Nc1ccc(F)c(C(=O)c2c[nH]c3ncc(-c4ccc(Cl)cc4)cc23)c1F + CC(C)NCC(C(=O)N1CCN(c2ncnc3c2C(C)CC3O)CC1)c1ccc(Cl)cc1
Second compound 0.3 µM
  IC50: > 100000 nM
Second compound 0.949 µM
  IC50: > 100000 nM
Second compound 3 µM
  IC50: > 100000 nM
Second compound 9.49 µM
  IC50: 8150 nM
Second compound 30 µM
  IC50: 3750 nM
[3]
  viability, T/C: 105%
[4]
  viability, T/C: 120%
[5]
  viability, T/C: 106%
[6]
  viability, T/C: 66.1%
Second compound 0.3 µM, first compound 31.6 µM
  viability, T/C: 26.5%
Second compound 0.3 µM, first compound 100 µM
  viability, T/C: 121%
[9]
  viability, T/C: 101%
[10]
  viability, T/C: 109%
[11]
  viability, T/C: 99.8%
[12]
  viability, T/C: 58.8%
Second compound 0.949 µM, first compound 31.6 µM
  viability, T/C: 10.6%
Second compound 0.949 µM, first compound 100 µM
  viability, T/C: 105%
[15]
  viability, T/C: 98.2%
[16]
  viability, T/C: 110%
[17]
  viability, T/C: 89%
[18]
  viability, T/C: 54.7%
Second compound 3 µM, first compound 31.6 µM
  viability, T/C: 9.13%
Second compound 3 µM, first compound 100 µM
  viability, T/C: 99.8%
[21]
  viability, T/C: 95.7%
[22]
  viability, T/C: 95.5%
[23]
  viability, T/C: 79.8%
[24]
  viability, T/C: 24.1%
Second compound 9.49 µM, first compound 31.6 µM
  viability, T/C: 27.2%
Second compound 9.49 µM, first compound 100 µM
  viability, T/C: 79.5%
[27]
  viability, T/C: 86%
[28]
  viability, T/C: 82.2%
[29]
  viability, T/C: 54.7%
[30]
  viability, T/C: 13.9%
Second compound 30 µM, first compound 31.6 µM
  viability, T/C: 2.73%
Second compound 30 µM, first compound 100 µM
  viability, T/C: 52.6%
